Test results published in patent US20210292315A1, “SELENIUM-CONTAINING ISOXAZOLAMINE COMPOUND, PREPARATION METHOD THEREFOR, AND USE THEREOF” (SHANGHAI XINGYE PHARMACEUTICAL TECHNOLOGY CO., LTD, priority 2018, published 2021).
Like-named read-outs stand apart in the source and are kept apart here.

Experiments:
TNF-α = TNF-α activity inhibiting assay: LPS-stimulated peripheral blood, TNF-α by ELISA; format: cell-based, human; settings: LPS 10 ng/mL, 6 hours, diluted peripheral blood from healthy volunteers, read-out: TNF-α inhibition (%)
Protocol: Methods: Peripheral blood from healthy volunteers was collected with EDTA anticoagulant tubes. After being diluted 5-fold with 1640 medium (Gibco, USA), the blood was added to 96-well cell culture plates (Costar, USA) and then treated with 10 μL solution of the compound of general formula (I) of the present invention in DMSO (Sigma, USA), and the final concentration of DMSO was 0.2%. After incubation for 60 minutes in an incubator at 37° C. under 5% CO2, 10 μL LPS (Sigma, USA) was added to the reaction system, and the final concentration was 10 ng/mL. After further culturing for 6 hours in the incubator at 37° C. under 5% CO2, the supernatant was collected. The content of TNF-α was determined by ELISA (BD Biosciences, USA). Absorbance was detected at OD450 nm with a microplate reader, with GD 650 nm as reference. The control, a solution containing 0.2% DMSO medium, was as 0% inhibition. Raw data and standard curves were recorded. The four-parameter drug inhibition curve was plotted by XL-fit software and the inhibition rate of each compound was calculated.

[1] = biological target: T1, Thioredoxin Reductase 1 (TrxR1) (Homo sapiens, UniProt Q16881); assay: Thioredoxin reductase 1 (TrxR1) activity inhibiting assay, NADPH consumption at 340 nm; format: biochemical; settings: insulin/Trx/NADPH system, absorbance 340 nm; read-out: TrxR inhibition IC50
T1 sequence (Q16881 151-649 limits assumed): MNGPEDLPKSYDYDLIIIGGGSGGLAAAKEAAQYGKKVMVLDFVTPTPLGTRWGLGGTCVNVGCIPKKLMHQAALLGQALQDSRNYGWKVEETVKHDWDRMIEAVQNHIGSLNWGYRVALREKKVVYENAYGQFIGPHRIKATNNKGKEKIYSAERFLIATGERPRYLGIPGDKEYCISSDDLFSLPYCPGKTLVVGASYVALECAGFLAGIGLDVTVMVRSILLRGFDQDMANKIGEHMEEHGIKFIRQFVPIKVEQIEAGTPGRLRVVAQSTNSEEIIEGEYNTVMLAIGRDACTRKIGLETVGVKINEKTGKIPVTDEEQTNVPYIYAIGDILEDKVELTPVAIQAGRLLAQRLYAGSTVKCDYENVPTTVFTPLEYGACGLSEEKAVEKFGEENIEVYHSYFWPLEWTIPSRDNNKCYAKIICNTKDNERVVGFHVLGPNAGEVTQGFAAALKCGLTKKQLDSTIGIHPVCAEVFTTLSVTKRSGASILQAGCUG
Protocol: Working solutions: 0.119 mg/mL of TrxR working solution preparation: 175 μL of TrxR stock solution (0.34 mg/mL) was diluted to 500 μL; 1 mM NADPH working solution preparation, NADPH (5 mg) was dissolved in 12 mL potassium phosphate buffer; 1 mM DTNB working solution preparation: 25 mg DTNB was dissolve in 63 mL DMSO; potassium phosphate buffer system preparation: 0.2 mg/mL bovine serum albumin (BSA) and 1 mM EDTA were added to potassium phosphate buffer at pH 7.4 (K2HPO4/KH2PO4).
Methods: The TrxR1 inhibitory activity study of selenium-containing isoxazolamines in vitro. Insulin, NADPH, Trx, the samples and TrxR1 were added to a microcuvette in order, and subsequently added the work buffer (0.1 mol/L potassium phosphate/2 mmol/L EDTA) to a total volume of 0.5 mL. The concentration of each component in the obtained reaction system is: insulin 130 μmol/L, NADPH […] (Sigma), Trx 4 μmol/L, the added substrate (the selenium-containing isoxazolamines treated samples). After determination of the initial absorption at 340 nm, the enzymatic reaction was started by adding 20 μg extracted TrxR1 proteins, the decrease in absorbance at 340 nm was monitored. One unit of enzymatic activity is defined as the consumption. The activity can be calculated from the extinction coefficient of NADPH, and the unit of enzyme activity is defined as: 1U=ΔA340 nm/min×1000, the TR activity could be calculated with U/L. The results are shown in table 2.

[2] = Glutathione peroxidase (GPx)-like activity assay, coupled NADPH oxidation at 340 nm; format: biochemical; settings: compound 50 μm, GSH 2.0 mM, pH 7.5, 25° C.; for Initial rate v0, Cum-OOH: peroxide Cum-OOH 1.6 mM; for Initial rate v0, H2O2: peroxide H2O2 1.6 mM; for Initial rate v0, tBuOOH: peroxide tBuOOH 1.6 mM
Protocol: Method: GPX activity of selenium compounds was assayed by ultraviolet spectrophotometry. Glutathione (2.0 mM), EDTA (1 mM), glutathione disulfide reductase (1.7 units mL^−1), and nicotinamide adenine dinucleotide phosphate […] (NADPH; 0.4 mM) were mixed intopotassium phosphate buffer (0.1 M, pH=7.5). The selenium compounds (50 μm) was added to the above mixture At room temperature (25° C.), and the reaction was started by the addition of H2O2, tBuOOH or Cum-OOH (1.6 mM) respectively. The initial reduction rates were calculated from the rate of NADPH oxidation at 340 nm in a GSH assay. Each initial rate was measured at least three times and calculated from the first 5-10% of the reaction by using 6.22 mM^−1 cm^−1 as the molar extinction coefficient for NADPH. For the peroxidase activity, the rates were corrected for the background reaction between peroxide and thiol.

| SMILES | IC50 (TNF-α) [µM] | IC50 [1] [µM] | IC50 (TNF-α; Homo sapiens) [µM] | other results |
| --- | --- | --- | --- | --- |
| COc1ccc2nc(-n3[se]c4ccccc4c3=O)sc2c1 [Compound 23] | 10 to 100 | 5 to 50 | – | – |
| O=C1CC(n2[se]c3ccccc3c2=O)C(=O)N1 (stereo not shown) [Compound 24] | 10 to 100 | – | – | – |
| COc1ccc2[se]n(C3CC(=O)NC3=O)c(=O)c2c1 (stereo not shown) [Compound 25] | – | 5 to 50 | 10 to 100 | – |
| O=C1CC(n2[se]c3cc(F)ccc3c2=O)C(=O)N1 (stereo not shown) [Compound 26] | 10 to 100 | – | – | Initial rate v0, Cum-OOH [2]: 164.5 ± 9.1 μm min^−1; Initial rate v0, H2O2 [2]: 145.2 ± 3.4 μm min^−1; Initial rate v0, tBuOOH [2]: 55.7 ± 5.2 μm min^−1 |
| O=C1CC(n2[se]c3c(F)cccc3c2=O)C(=O)N1 (stereo not shown) [Compound 27] | 1 to 10 | 5 to 50 | – | – |
| Cc1cccc2c(=O)n(C3CC(=O)NC3=O)[se]c12 (stereo not shown) [Compound 28] | < 1 | – | – | – |
| COc1cccc2c(=O)n(-c3nc4ccc(OC(F)(F)F)cc4s3)[se]c12 [Compound 30] | – | < 5 | 10 to 100 | – |
| O=C1c2ccccc2[Se](=O)N1C12CC3CC(CC(O)(C3)C1)C2 (stereo not shown) [Compound 32] | – | – | > 100 | Initial rate v0, Cum-OOH [2]: 11.5 ± 0.2 μm min^−1; Initial rate v0, H2O2 [2]: 36.7 ± 0.8 μm min^−1; Initial rate v0, tBuOOH [2]: 12.0 ± 2.3 μm min^−1 |
| O=C1c2ccccc2[Se](=O)N1c1nc2ccccc2s1 (stereo not shown) [Compound 33] | – | – | > 100 | – |
| O=C1c2ccccc2[Se](=O)N1c1nc2ccc(OC(F)(F)F)cc2s1 (stereo not shown) [Compound 34] | – | 50 to 100 | 10 to 100 | Initial rate v0, Cum-OOH [2]: 12.4 ± 0.3 μm min^−1; Initial rate v0, H2O2 [2]: 39.7 ± 1.4 μm min^−1; Initial rate v0, tBuOOH [2]: 14.2 ± 1.1 μm min^−1 |
| Nc1cccc2c1[Se](=O)N(C1CCC(=O)NC1=O)C2=O (stereo not shown) [Compound 35] | < 1 | – | – | – |
| O=C1CCC(N2C(=O)c3cc(F)ccc3[Se]2=O)C(=O)N1 (stereo not shown) [Compound 36] | 10 to 100 | – | – | – |
| CC(=O)Nc1cccc2c1[Se](=O)N(C1CCC(=O)NC1=O)C2=O (stereo not shown) [Compound 37] | 10 to 100 | – | – | – |
| O=C1CCC(N2C(=O)c3ccc(F)cc3[Se]2=O)C(=O)N1 (stereo not shown) [Compound 39] | 10 to 100 | – | – | – |
| COc1cccc2c1[Se](=O)N(C1CCC(=O)NC1=O)C2=O (stereo not shown) [Compound 40] | – | 50 to 100 | 1 to 10 | – |
| O=C1CC(N2C(=O)c3ccccc3[Se]2=O)C(=O)N1 (stereo not shown) [Compound 41] | 10 to 100 | – | – | – |
| COc1cccc2c1[Se]N(C1CCC(=O)NC1=O)C2 (stereo not shown) [Compound 44] | – | – | 1 to 10 | – |
| COc1ccc2c(c1)CN(C1CCC(=O)NC1=O)[Se]2 (stereo not shown) [Compound 45] | – | 5 to 50 | – | – |
| COc1cccc2c1[Se]N(C13CC4CC(CC(O)(C4)C1)C3)C2 [Compound 50] | – | – | 10 to 100 | – |
| O=c1c2ccccc2[se]n1-c1ccccc1 [Ebselen, reference compound] | – | 50 to 100 | – | – |
| Nc1cccc2c1CN(C1CCC(=O)NC1=O)C2=O (stereo not shown) [Lenadomide, reference compound] | – | – | < 1 | – |
| O=C1CCC(N2C(=O)c3ccccc3C2=O)C(=O)N1 (stereo not shown) [Thalidomide, reference compound] | – | – | > 100 | – |
